Source: patent publication US11129871B1, “Compositions and methods for treating and preventing endoplasmic reticulum (ER) stress-mediated kidney diseases” (Washington University, priority 2018, dated 2021)

Columns and labels:
[1] = system: Lamb2+/- mice; test: K201 toxicity in control mice (kidney histology, BUN); type: in vivo, mouse; conditions: K201 4 weeks vs vehicle-treated control littermates
Procedure: FIG. 13. […] HE staining of K201 or vehicle-injected kidneys at the end of treatment.
(§1) BUN was measured by using a QuantiChrom™ urea assay kit (DIUR-500) (BioAssay Systems, Hayward, Calif.).
For light microscopy, kidneys were fixed in 4% paraformaldehyde, dehydrated through graded ethanols, embedded in paraffin, sectioned at 4 μm, and stained with Hematoxylin & Eosin (H&E) by standard methods.

[2] = system: primary podocytes; test: MTT cell viability assay; type: cell-based, mouse; conditions: 1-5 μM of K201
Procedure: The higher apoptotic rates in all groups were most likely due to the effect of DMSO.
Isolated glomeruli from Tg-WT, Tg-C321R, and Lamb2^+/− mice at P27 were plated onto collagen type I-coated culture dishes, and cultured in 5% CO2 at 37° C. in DMEM (Gibco, NY):Ham's F-12 (Lonza, NY) (2:1) that contained 3T3-L1 supernatant, 5% heat-inactivated fetal bovine serum (Gibco), 1% Insulin-Transferrin-Selenium liquid media supplement (Gibco), and 100 U/ml penicillin-streptomycin (Gibco). After 3 days, cell colonies began to sprout around the glomeruli. […] Passage 0 podocytes from the indicated genotypes were used for RNA sequencing, and passages 1 and 2 podocytes for other in vitro studies.

[3] = system: procaspases 12 and 3; test: Western blot of cleaved caspase 12 and caspase 3 in podocyte lysates; type: cell-based, mouse; conditions: Tg-C321R podocytes
Procedure: (§2) Mouse primary podocytes and isolated glomeruli were lysed by RIPA buffer (Cell signaling) containing protease inhibitor cocktail (Sigma-Aldrich) and phosphatase inhibitor tablets (Roche, Indianapolis, Ind.). The protein concentrations of cell and glomerular lysates were determined by Bio-Rad Protein assay (Hercules, Calif.) using BSA as a standard. Denatured proteins were separated on SDS-polyacrylamide gels and then transferred to polyvinylidene difluoride membranes (Thermo Scientific). The membranes were blocked with 5% non-fat milk for 1 h and then incubated overnight with primary antibodies. Following incubation, membranes were washed with 0.1% Tris-buffered saline/Tween buffer and incubated with the appropriate HRP-conjugated secondary antibodies. The proteins were then detected using ECLplus kit (GE, Pittsburgh, Pa.) and visualized in an x-ray developer. To ensure equal protein loading, the same blot was stripped with stripping buffer (25 mM glycine and 1% SDS, pH 2.0) and then incubated with an HRP-conjugated anti-mouse β-actin antibody. Protein band intensities were quantified using Image J software (NIH, Bethesda, Md.).

[4] = system: 293T cells stably expressing SERCaMP; test: SERCaMP secretion (GLuc luciferase) assay of ER calcium depletion induced by thapsigargin; type: cell-based, human
Procedure: FIG. 11A-FIG. 11B. SERCaMP secretion is specifically triggered by ER calcium depletion. 293T cells stably expressing (A) SERCaMP or (B) control GLuc-STOP were treated with 0.1 μM TG or DMSO, for varying durations. Luciferase activity was measured in the medium (mean±SD, n=3) and normalized to the respective baseline. **P<0.01 by t-test.
RyR expression was next examined at the protein level. […] Since it has been shown that RyR2 isoform is present in the rabbit kidney cortex and its activity is modulated by phosphorylation of the channel, phosphorylation of RyR2 at Ser2808 was further examined. […] It has been shown that the carboxy-terminal sequence of an ER stress protein MANF (mesencephalic astrocyte-derived neurotrophic factor), ASARTDL (SEQ ID NO: 3), is sufficient to specifically confer ER calcium-depletion-dependent secretion. […] When human embryonic kidney (HEK) 293T cells stably expressing SERCaMP or control GLuc-STOP without the ASARTDL tag were treated with DMSO or 0.1 μM thapsigargin (TG), a SERCA inhibitor causing ER calcium depletion for 6 hours, SERCaMP secretion, as measured by luciferase activity in the cell culture medium, was increased in response to ER calcium depletion induced by TG (see e.g., FIG. 11A and FIG. 11B).

[5] = system: Tg-C321R primary podocytes; test: Cytosolic calcium levels measured by Fluo-4 AM; type: cell-based, mouse
Procedure: The cytosolic Ca^2+ levels were measured by Fluo-4 AM (Invitrogen). Primary podocytes of the indicated genotypes were plated on 6-well plates at 1×10^5 cells/well and stained with 2.5 μM Fluo-4 AM and 1 mM probenecid in the dark at 37° C. for 30 minutes. Then the cells were washed with PBS and kept in the dark for another 30 minutes to allow cleavage of intracellular AM esters. Fluorescence was measured by flow cytometer Calibur 3 (BD Biosciences, San Jose, Calif.) at the FACS core facility of Washington University School of Medicine. The results were analyzed by Cell Quest. For measuring intracellular Ca^2+ levels in primary podocytes treated with or without […] or MANF, cells were plated on 96-well plates at 0.8×10^4 cells per well and stained with Fluo-4 AM along with probenecid to enable high-throughput readout. Fluorescence was measured at excitation wavelength 485 nm and emission wavelength 528 nm by a fluorescent plate reader Synergy H1 (BioTek, Winooski, Vt.).

[6] = system: Tg-C321R primary podocytes; test: Annexin V-FITC/PI flow cytometry of early apoptosis; type: cell-based, mouse
Procedure: Apoptotic cell death was measured by FITC Annexin V/PI apoptosis detection kit (BD Biosciences) according to the manufacturer's protocol. […] The untreated- and treated-podocytes were harvested, washed with cold PBS twice, resuspended in binding buffer, and stained with Annexin V-FITC and PI in dark at room temperature for 15 minutes. After incubation, binding buffer was added, and the podocytes were analyzed by flow cytometer Calibur 3 (BD Biosciences). Unstained cells, cells stained with FITC-Annexin V or PI alone were used as controls to set up compensation and quadrants in flow cytometry. The results were analyzed by Cell Quest program.

[7] = system: Tg-C321R mice; test: K201 treatment of podocyte ER stress-induced NS mouse model (urinary calpain, albuminuria, BUN); type: in vivo; conditions: for albuminuria: K201 12.5-15 mg/kg i.p.
Procedure: Urinary calpain activity was measured by Calpain-Glo™ Protease Assay (Promega, Madison, Wis.). In brief, urines were incubated with calpain substrate (Succinyl-LLVY-aminoluciferin). Following cleavage of substrate by calpain, the substrate for luciferase (aminoluciferin) was released, allowing the luciferase reaction to occur and luminescence to be detected by Femtomaster FB12 Luminometer. The actual values of raw light units were normalized by urine Cr for each group.
as §1
Mouse urines were collected by manual restraint or using a metabolic cage. The mouse urines were centrifuged at 1800 g for 10 minutes to remove debris before being frozen at −70° C. Urinary Cr concentration was quantified by a QuantiChrom™ creatinine assay kit (DICT-500) (BioAssay Systems) and albuminuria was measured by a QuantiChrom™ BCG albumin assay kit (DIAG-250) (BioAssay Systems).

[8] = target: T1, RyR2 (Mus musculus, UniProt E9Q401); test: Western blot of p-RyR2 (S2808) and RyR in podocyte lysates; type: cell-based; conditions: MANF 5 μg/ml, 24 hours, Tg-C321R podocytes
T1 construct: endogenous in cells; host or cells: mouse primary podocytes from Tg-WT and Tg-C321R mice at P27

[9] = system: CHOP; test: Western blot of CHOP in podocyte lysates; type: cell-based, mouse; conditions: MANF 5 μg/ml, 24 hours, Tg-C321R podocytes
Procedure: as §2

[10] = system: XBP1s and ATF4; test: Western blot of XBP1s and ATF4 in podocyte lysates; type: cell-based, mouse; conditions: MANF 5 μg/ml, 24 hours, Tg-C321R podocytes
Procedure: as §2

[11] = system: Umod C147W/+ mice; test: DOX-induced renal tubular MANF expression in ADTKD mouse model (BUN); type: in vivo; conditions: DOX-induced tubular MANF from 6 to 24 weeks of age, TETMANF/+, P8TA vs Umod C147W/+
Procedure: as §1
Conditional renal tubular-specific MANF transgenic mice have been generated. TET-MANF mice were crossed with renal tubular-specific rtTA (Pax8-rtTA; P8TA) mice to generate bitransgenic TETMANF/+; P8TA mice, which were further bred to Umod C147W mice to generate Umod C147W/+; TETMANF/+; P8TA and Umod C147W/+; P8TA mice. Meanwhile, control Umod^+/+; TETMANF/+; P8TA and Umod^+/+; P8TA littermates were also generated. By administrating DOX, MANF expression was induced in renal tubules of Umod C147W/+; TETMANF/+; P8TA mice and control Umod^+/+; TETMANF/+; P8TA mice starting at 6 weeks of age until 24 weeks of age. Meanwhile, single transgenic mice including Umod C147W/+; P8TA and Umod^+/+; P8TA treated with DOX for the same duration were also included as controls.

[12] = recombinant MANF 24 h, Example 3

COc1ccc2c(c1)CN(C(=O)CCN1CCC(Cc3ccccc3)CC1)CCS2 [K201, 4-[-3{1-(4-Benzyl)piperidinyl}propionyl]-7-methoxy-2,3,4,5-tetrahydro-1,4-benzothiazepine]
kidney histology (HE staining) [1]: no abnormality | renal function as indicated by blood urea nitrogen (BUN) [1]: no abnormality | cell viability (MTT) [2]: non-toxic | activation of procaspases 12 and 3 ([3]; 5 μM K201, 24 hours): abolished | TG-induced ER calcium depletion (SERCaMP GLuc activity in the medium) ([4]; 0.1 μM TG + 1 μM K201, 6 hours): abrogate TG-induced ER calcium depletion | podocyte ER-to-cytosol calcium leak (cytosolic calcium, Fluo-4) ([5]; 5 μM K201, 24 hours): markedly blocked | early apoptotic rate (Annexin V+/PI- cells) ([6]; 5 μM K201, 24 hours, DMSO control 24.73±2.22%): 15.23±2.84% | albuminuria ([7]; 3 weeks post-injection, vehicle 0.137±0.037): 0.095±0.029 g/mg Cr | albuminuria ([7]; 4 weeks post-injection, vehicle 0.142±0.022): 0.098±0.016 g/mg Cr | Urinary calpain activity/Cr ([7]; K201 12.5-15 mg/kg i.p. once daily vs 20% HBC, from 2 weeks to 4 weeks post-treatment): dramatically decreased | kidney function as indicated by blood urea nitrogen (BUN) ([7]; end of 4 weeks of injection, Tg-C321R mice): improved kidney function

C/C=C(/C)C(=O)O[C@H]1C(C)=C2[C@H]([C@@H]1OC(=O)CCCCCCC)[C@@](C)(OC(C)=O)C[C@H](OC(=O)CCC)[C@@]1(O)[C@H]2OC(=O)[C@@]1(C)O [thapsigargin]
SERCaMP secretion (luciferase activity in the cell culture medium) ([4]; 0.1 μM thapsigargin vs DMSO, 6 hours): increased

B1: MANF: Recombinant human MANF from R&D Systems; 18 kDa soluble ER stress inducible secreted protein (protein, UniProt P55145 25-182, looked up)
Mesencephalic …: LRPGDCEVCISYLGRFYQDLKDRDVTFSPATIENELIKFCREARGKENRLCYYIGATDDAATKIINEVSKPLAHHIPVEKICEKLKKKDSQICELKYDKQIDLSTVDLKKLRVKELKKILDDWGETCKGCAEKSDYIRKINELMPKYAPKAASARTDL
phosphorylation of ER RyR2 (S2808) [8]: reduced phosphorylation | CHOP induction [9]: abrogated | XBP1s and ATF4 induction [10]: inhibition | active cleaved caspase 12 ([3]; MANF 5 μg/ml, 24 hours): suppression | cytosolic calcium levels (Fluo-4) ([5]; MANF recombinant protein 5 μg/ml, 24 hours): significantly decreased | kidney function (BUN levels) [11]: improved the kidney function | early apoptotic rate (Annexin V+/PI-) ([6]; MANF 5 μg/ml, 24 hours, untreated 17.18±0.77%): 10.09±0.51% | early apoptosis (Annexin V+/PI- podocytes), printed as after treatment [6, 12]: 17.27% | early apoptosis (Annexin V+/PI- podocytes), printed as before treatment [6, 12]: 10.73%
